{"source": "patent US3976763A", "about": "“Chlorpromazine assay” (Hoffmann-La Roche Inc., priority 1975, dated 1976)", "key": {"[1]": {"system": "antibody in the antiserum of rabbit immunized by the CPZ-BSA immunogen", "test": "Radioimmunoassay specificity: inhibition of 3H-CPZ binding to antibody", "conditions": "for binding by the antibody (in words): competition with labeled CPZ; for concentration required to produce a 50% inhibition of 3H-chlorpromazine-antibody binding, relative to chlorpromazine: multiple of the CPZ concentration", "experimental": "The antiserum of EXAMPLE 2 as used for the radioimmunoassay was diluted with normal rabbit serum which was diluted with phosphate-buffered saline, pH 7.4, at 1:10 dilution. To determine the antibody titre of antiserum, 0.1 ml. of various dilutions of the antiserum was incubated in an assay tube (10 × 75 mm) with 320 pg of ^3 H-CPZ approximately 7,000 dpm, at 4°C. overnight. The volume was adjusted to 0.5 ml. with phosphate-buffered salie, pH 7.4 which is the optimal pH for the assay. The antibody bound CPZ was separated from free CPZ by the addition of saturated ammonium sulfate which was adjusted to pH 7.4 with ammonium hydroxide as described by Farr, J. Infect. Dis. 103, 239 (1958). After two washings with 50% saturated ammonium sulfate, the precipitate was dissolved in 0.5 ml. of water. The content of the tube was transferred to a counting vial and the tube was then washed four times with 3 ml. of Riaflour. The 12 ml. washings were all collected in the vial. The radioactivity was then counted with a Beckman liquid scintillation counter. Thedilution of the antiserum chosen for further studies were 1:7,000.\nAppropriate volume of phosphate-buffered saline, pH 7.4 was added to all the tubes containing 0.1 ml. of the antiserum to make a final incubation volume of 0.5 ml. To the tubes were added various quantities ranging from 100 ng. to 10 pg. (10 1) of CPZ, its derivatives, serotonin and dopamine. After a 15 minute preincubation, 10 l. of ^3 H-CPZ was added. The tubes were then incubated overnight at 4°C. followed by precipitation with ammonium sulfate.\nBackground and non-specific protein binding of ^3 H-CPZ were determined by excluding the antiserum from the incubation mixture. The counts representing the non-specific binding were then subtracted from all samples.\nThe specificity of the antibody in the antiserum of rabbit immunized by the CPZ-BSA immunogen was determined by incubating the antiserum with a number of CPz derivatives or the biologenic amines in the presence of labeled CPZ. […] CPZ substituted at C6, C7, or C8 with hydroxy group was not bound by the antibody to the same extent as CPZ. In order to obtain a 50% inhibition of ^3 H-CPZ-antibody complex formation, these hydroxylated derivatives of CPZ required concentrations which were 5-10 times that of CPZ. […] The 7hydroxy derivatives of Nor1 -CPZ or Nor2 CPZ likewise were poorly bound by the antibody. Another metabolic product which can be formed from CPZ is CPZ-N-oxide. […] Promazine, the dechlorinated derivative required about 8 times the concentration of CPZ to produce a 50% displacement of the labeled CPZ from the antibody."}, "[2]": {"test": "Disposition of CPZ in rats: plasma level by radioimmunoassay", "type": "in vivo, Male Sprague-Dawley rats", "conditions": "iv, rat, 10 mg/kg CPZ hydrochloride intravenously, after initial rapid decline", "experimental": "To determine the plasma concentration of CPZ, aliquots of plasma from animals which received CPZ were diluted with normal rat plasma. To the assay tubes containing antiserum, phosphate-buffered saline, pH 7.4, ^3 H-CPZ and 10 l of unknown samples were added, and incubated at 4°C. overnight. Free CPZ was separated from the antibody bound CPZ by ammonium sulfate precipitation.\nMale Sprague-Dawley rats weighing 210-240 g. were injected intravenously with 10 mg/kg of CPZ hydrochloride. In one group of 6 rats, 0.1 ml. of blood samples were taken from the tail into a heparinized capillary tube at varying time intervals following the injection. The plasma was separated by centrifugation and frozen until assayed. Other 48 rats were killed by decapitation at the same intervals as above, and the brain was removed, frozen on dry ice and then kept in a deep freezer at -80°C. until assayed.\nThe radioimmunoassay procedure of Example 3 was applied to the determination of CPZ and some minor metabolites in rat plasma and brain following intravenous administration of CPZ hydrochloride."}, "[3]": {"test": "Disposition of CPZ in rats: brain level by radioimmunoassay", "type": "in vivo, Male Sprague-Dawley rats", "conditions": "rat", "quoted_text": "The extraction of CPZ from the brain homogenate was necessary as the compound bound to the tissue. The brain was homogenized with 4 volumes of 0.05 N HCl. To a 0.1 ml. aliquot of the brain homogenate, 0.05 ml. of 0.5 N NaOH and 1.5 ml. of petroleum ether containing 10% isopropyl alcohol were added. The tube was vortexed twice for 20 seconds and then centrifuged at 3000 r.p.m. at 8°C. for 10 minutes. The tube was dipped in a dry ice-acetone bath and the aqueous layer was frozen. The upper organic layer was then transferred to another tube and evaporated to dryness under vacuum. The residue was dissolved in an appropriate volume of 25% isopropyl alcohol. To the assay tube containing antiserum, phosphate-buffered saline, pH 7.4 and ^3 H-CPZ, 10 μl of unknown sample was added."}}, "data": [{"compound": "NCCCN1c2ccccc2Sc2ccc(Cl)cc21", "note": "[nor2 -chlorpromazine]", "values": [{"measurement": "binding by the antibody (in words)", "setting": "[1]", "result": "not bound significantly"}, {"measurement": "binding by the antibody (in words)", "setting": "[1]; listed as Nor2 -CPZ", "result": "failed to recognize the compound unless the concentrations were extremely high"}]}, {"compound": "CN(C)CCCN1c2ccccc2[S+]([O-])c2ccc(Cl)cc21", "note": "(stereo not drawn) [chlorpromazine sulfoxide]", "values": [{"measurement": "binding by the antibody (in words)", "setting": "[1]", "result": "not bound significantly"}, {"measurement": "binding by the antibody (in words)", "setting": "[1]; listed as CPZ-sulfoxide", "result": "not recognized by the antibody unless the concentrations were high"}]}, {"compound": "C[N+](C)([O-])CCCN1c2ccccc2Sc2ccc(Cl)cc21", "note": "[CPZ-N-oxide]", "values": [{"measurement": "binding by the antibody (in words)", "setting": "[1]", "result": "not bound to the antibody to any appreciable extent"}]}, {"compound": "CN(C)CCCN1c2ccccc2Sc2ccc(Cl)cc21", "note": "[CPZ, Chlorpromazine]", "values": [{"measurement": "half-life", "setting": "[2]", "result": "~4", "unit": "h"}, {"measurement": "time to peak brain level of CPZ and metabolites", "setting": "[3]; 10 mg/kg CPZ hydrochloride intravenously", "result": "Five"}, {"measurement": "persistence of peak brain level", "setting": "[3]; in vivo, iv, 10 mg/kg", "result": 30, "unit": "min"}, {"measurement": "concentration producing a 50% inhibition of binding of 3H-CPZ to the antibody", "setting": "[1]; 320 pg 3H-CPZ, antiserum 1:7,000, 0.5 ml, pH 7.4, 4°C overnight", "result": 118, "unit": "pg"}]}, {"compound": "CN(C)CCCN1c2ccccc2Sc2ccccc21", "note": "[promazine]", "values": [{"measurement": "concentration required to produce a 50% inhibition of 3H-chlorpromazine-antibody binding, relative to chlorpromazine", "setting": "[1]", "result": "5-10 times"}, {"measurement": "concentration required to produce a 50% inhibition of 3H-chlorpromazine-antibody binding, relative to chlorpromazine", "setting": "[1]; listed as Promazine", "result": "about 8 times"}]}, {"compound": "CN(C)CCCN1c2cc(O)ccc2Sc2ccc(Cl)cc21", "note": "[8-hydroxychlorpromazine]", "values": [{"measurement": "concentration required to produce a 50% inhibition of 3H-chlorpromazine-antibody binding, relative to chlorpromazine", "setting": "[1]", "result": "5-10 times"}]}, {"compound": "CN(C)CCCN1c2ccc(O)cc2Sc2ccc(Cl)cc21", "note": "[7-hydroxychlorpromazine]", "values": [{"measurement": "concentration required to produce a 50% inhibition of 3H-chlorpromazine-antibody binding, relative to chlorpromazine", "setting": "[1]", "result": "5-10 times"}]}, {"compound": "CNCCCN1c2ccccc2Sc2ccc(Cl)cc21", "note": "[nor1 -chlorpromazine]", "values": [{"measurement": "binding by the antibody (in words)", "setting": "[1]", "result": "not bound significantly"}, {"measurement": "binding by the antibody (in words)", "setting": "[1]; listed as Nor1 -CPZ", "result": "bound by the antibody to a much lesser extent"}]}]}
